Results from ChEMBL document CHEMBL4342523, “Discovery and Development of S6821 and S7958 as Potent TAS2R8 Antagonists” (J Med Chem, 2020).
Active and inactive are the calls of the source. No cut-off for these calls is given here.

Legend:
[1] = target: T1, Taste receptor type 2 member 8 (Homo sapiens) (UniProt Q9NYW2); test: Competitive antagonist activity at recombinant human TAS2R8 assessed as inhibition of chloramphenicol-induced intracellular calcium level at 3 to 3000 nM preincubated for 60 secs followed by varying levels of chloramphenicol addition using Fura-2AM dye by cell-based fluorescent microscopic analysis
T1 sequence (whole entry): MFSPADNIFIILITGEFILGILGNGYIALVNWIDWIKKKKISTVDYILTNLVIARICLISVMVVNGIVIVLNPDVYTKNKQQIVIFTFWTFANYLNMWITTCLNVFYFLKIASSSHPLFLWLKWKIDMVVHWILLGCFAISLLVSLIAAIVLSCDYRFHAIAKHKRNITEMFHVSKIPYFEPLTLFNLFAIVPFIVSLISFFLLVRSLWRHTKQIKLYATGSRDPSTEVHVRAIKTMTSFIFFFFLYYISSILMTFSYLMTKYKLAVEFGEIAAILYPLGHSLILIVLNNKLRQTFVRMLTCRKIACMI

[2] = Drug metabolism in pH 7.1 buffer assessed as hydrolytic opening of hydantoin ring by measuring compound 66 formation measured under heat condition
[3] = Maternal toxicity in po dosed Sprague-Dawley rat administered via gavage during gestation period; format: ADME, organism-based; conditions: female, in vivo
[4] = Stability of the compound in pH 7.1 buffer assessed as parent compound remaining measured after 60 mins at 124 degC; format: physicochemical; conditions: read-out: Stability
[5] = Stability of the compound in pH 7.1 buffer assessed as parent compound remaining measured after 24 hrs at room temperature; format: physicochemical; conditions: read-out: Stability
[6] = target: Taste receptor type 2 member 1 (Homo sapiens, UniProt Q9NYW7); test: Agonist activity at TAS2R1 (unknown origin) by stably expressed cell-based assay
[7] = Chronic toxicity in po dosed Sprague-Dawley rat administered daily for 90 days; format: organism-based; conditions: in vivo
[8] = Stability of the compound in pH 6.5 buffer assessed as parent compound remaining measured after 30 secs at 140 degC; format: physicochemical; conditions: read-out: Stability

Taste receptor type 2 member 1, sequence (Q9NYW7 whole entry): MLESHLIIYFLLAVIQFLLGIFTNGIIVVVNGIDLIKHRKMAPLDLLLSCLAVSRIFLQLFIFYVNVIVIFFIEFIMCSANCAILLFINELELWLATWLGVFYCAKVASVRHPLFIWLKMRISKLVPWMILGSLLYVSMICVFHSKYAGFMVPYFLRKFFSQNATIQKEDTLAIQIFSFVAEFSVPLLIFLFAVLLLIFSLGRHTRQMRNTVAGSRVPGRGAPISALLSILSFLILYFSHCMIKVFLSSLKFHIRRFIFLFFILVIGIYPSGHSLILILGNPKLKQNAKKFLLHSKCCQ

Cc1noc(C)c1Cn1cc(N2C(=O)CN(Cc3cccc(O)c3)C2=O)cn1
inhibition [1]: Active | Drug metabolism [2]: Metabolite detected | NOAEL [3]: 1000 mg/kg | remaining at 1 h [4]: 89% | remaining at 24 h [5]: > 99% | EC50 [6]: 150 µM | NOAEL at 2160 h [7]: 100 mg/kg | remaining at 0.5 min [8]: > 99%
